Assay results as given in patent publication US8377922B2, “Benzazepinone compound” (Ube Industries, Ltd., priority 2007, dated 2013).
Counter-ions that a name gives are not always drawn.

What was measured:
[1] = system: αvβ6 expressed cells (HT-29 cells); assay: Cell adhesion test of αvβ6 expressed cell; format: cell-based; settings: binding to human fibronectin, read-out: αvβ6 expressed cells adhesion inhibiting IC50 value
Method: The experiment was carried out by partially modifying the method of Goodman et al. (J. Med. Chem., 45, 1045 (2002)).
Human fibronectin (available from CHEMICON) was adjusted to […] with PBS. This was applied on the 96-well plate (MS9586F, available from SUMIRON) with 100 μL/well, coating was carried out at room temperature for 1 hour, and the coating solution was removed and dried. Thereafter, a blocking treatment was carried out with 1.0% BSA dissolved in DMEM for 1 hour, and washed with PBS, and this was used as a coating plate in the adhesion test. HT-29 cells (available from Dainippon Sumitomo Pharma Co., Ltd.) cultured in McCoy's 5A medium containing 10% FBS were detached by using trypsin-ethylenediamine tetraacetic acid, washed with PBS and recovered. Then, the cells were suspended in DMEM to prepare a HT-29 cells suspension. DMEM solution containing the HT-29 cells and a compound to be tested were each added to human fibronectin coating plates each in an amount of 50 μL/well to start the adhesion test.
The adhesion test was carried out in a 5% carbonic acid gas incubator (37° C.) for 2 hours. After completion of the adhesion test, the supernatant was removed by aspiration, and the plates were washed with PBS. Then, Crystal violet staining was carried out, and the number of cells was measured. A concentration (IC50 value) of the compound to be tested necessary for inhibiting 50% of binding to human fibronectin was calculated by using EXSAS (available from Arm Systex Co., Ltd.).

[2] = system: αvβ3 expressed cells (HUVEC); assay: Cell adhesion test of αvβ3 expressed cell; format: cell-based; settings: binding to human vitronectin, 50% human serum-containing DMEM, read-out: αvβ3 expressed cells adhesion inhibiting IC50 value
Method: The experiment was carried out by partially modifying the method of Juliano et al. (Exp. Cell Res., 225(1), 132 (1996)).
Human vitronectin (available from CHEMICON) was adjusted to 10 μg/mL with phosphate buffered physiological saline (hereinafter abbreviated as PBS). This was applied onto the 96-well plate (MS9586F, available from SUMIRON) with 100 μL/well, coating was carried out at room temperature for 1 hour, and the coating solution was removed and the plate was dried. Thereafter, blocking treatment was carried out with 1.0% BSA dissolved in Dulbecco's Modified Eagle Medium (hereinafter abbreviated as DMEM) for 1 hour, washed with PBS, and the resulting material was used for the adhesion test as a coating plate. HUVEC (human umbilical endothelial cells) (available from Clonetics Corp.) cultured in endothelian cell basal medium EBM2 (available from Clonetics Corp.) containing EGM-2 SingleQuot Kit suppi. & growth factors EGM2 (available from Clonetics Corp.) and 10% fetal bovine serum (hereinafter abbreviated as FBS) were detached by using trypsin-ethylenediamine tetraacetic acid, washed by using PBS and recovered, and then, suspended in 50% human serum-containing DMEM to prepare cell suspension of HUVEC. […]
The adhesion test was carried out in a 5% carbonic acid gas incubator (37° C.) for 1 hour. […] Crystal violet staining was carried out, and the number of stained cells was measured. […]

IC50 [1] [nM]	SMILES	IC50 [2] [nM]
> 100000	CNc1cccc(CCOc2ccc3c(c2)CN(CC(F)(F)F)C(=O)C(CC(=O)O)C3)n1 (racemic) [Compound A, 8-[2-[6-(methylamino)-pyridin-2-yl]-1-ethoxy]-3-oxo-2-(2,2,2-trifluoroethyl)-2,3,4,5-tetrahydro-1H-2-benz-azepin-4-acetic acid, reference compound]	
441	O=C(O)CC1Cc2ccc(OCCc3cn4c(n3)NCCC4)cc2CN(CC(F)(F)F)C1=O (stereo not shown) [Example 2, 3-oxo-8-[2-(5,6,7,8-tetrahydroimidazo[1,2-a]pyrimidin-2-yl)ethoxy]-2-(2,2,2-tri-fluoroethyl)-2,3,4,5-tetrahydro-1H-2-benzazepin-4-acetic acid trifluoroacetate]	61
296	O=C(O)C[C@@H]1Cc2ccc(OCCc3cn4c(n3)NCCC4)cc2CN(CC(F)(F)F)C1=O [Example 4, (4S)-3-oxo-8-[2-(5,6,7,8-tetrahydroimidazo[1,2-a]pyrimidin-2-yl)ethoxy]-2-(2,2,2-trifluoroethyl)-2,3,4,5-tetrahydro-1H-2-benzazepin-4-acetic acid]	
